From patent US5157032A, “Mixed ligand complexes and uses thereof as binding agents and probes to DNA” (The Trustees of Columbia University In The City of New York, priority 1990, dated 1992) come the findings set out here.

Assay [1] deals with electrophoresed DNA in agarose gel. Briefly: Staining of DNA in agarose gels. The following applies: in words. An excerpt:
One interesting application is the binding of this complex to DNA that has been electrophoresed in a agarose gel.

A further assay deals with poly d(AT).d(AT). Briefly: Luminescence with poly d(AT).d(AT). The following applies: Buffer (50.0 mM NaCl), 25. It is filed as binding.
In the next assay the test system is B-form DNA. Briefly: Steady state luminescence polarization with B-form DNA. It is filed as binding. The settings on record: 100 μM DNA. As for the experimental part:
(§1) FIG. 22 Steady State Polarization of Ru(bpy)2 (dppz)^2+ with B and Z-form DNA Under the conditions that provide B-form (lower curve) DNA the highest measured polarization is 0.15 with a limiting polarization 0.10. Under the conditions that provide Z-DNA (upper curve) the highest polarization is 0.35 with a limiting polarization of 0.14. Ru(bpy)2 (dppz)^2+ 10 μM, poly d(GC) d(GC) 100 μM, λex =482 nm.
To further test the extent of intercalation of this complex a study of the steady state luminescence polarization of the complex bound to each form of DNA was made. These experiments give information on how rigidly the complex is held by the DNA. […] This reflects a situation where the complex is completely bound to the right-handed helix. As the concentration of Ru(bpy)2 (dppz)^2+ increases, the polarization decreases to limiting value (0.10) at a complex:base pair ratio of 1:10.
To further test the extent of intercalation of this complex we studied the steady state luminescence polarization of the complex bound to each form of DNA. These experiments give information on how rigidly the complex is held by the DNA. […] This reflects a situation where the complex is completely bound to the right-handed helix. As the concentration of Ru(bpy)2 (dppz)^2+ increases, the polarization decreases to a limiting value (0.10) at a complex: base pair rtio of 1:10.

The next assay relates to CT DNA. Kind of assay: Luminescence in presence of CT DNA. It is filed as binding, calf. As for the experimental part: While a linear relationship of the luminescence is observed for Ru(bpy)2 (dppz)^2+ in iso-propanol as a function of temperature this is not the behavior seen when the complex is bound to DNA. When the complex, Ru(bpy)2 (dppz)^2+ is bound to cal-thymus (CT) DNA (100 μM) under low salt conditions at 25 ° C. a biexponential lifetime is observed. A short component which is assigned to a surface interaction, and a long component which is assigned to an intercalated species. As is shown in Table 1, the short component remains relatively unchanged until 70 ° C. when there is an abrupt decrease in the lifetime to 45 ns at 85° C. […] Under these conditions the CT DNA melts and the observed lifetimes of the complexes are similar to those lifetimes measured with single stranded DNA. […] In fact there is an abrupt decrease in the quantum yield at the melting temperature at this salt concentration. This decrease in quantum yield may be explained thus: when the complex is bound to the double stranded form the quenching ability of H2 O is inhibited while at the melting temperature the single stranded form of DNA cannot protect the complex from quenching of H2 O and therefore the observed luminescence is not as intense.

The subject of assay [2] is poly d(GC).d(GC) B-form DNA. Kind of assay: Luminescence with poly d(GC).d(GC), B-form. It is filed as binding. As for the experimental part: (§2) FIG. 21A to 21C: Luminescent Enhancement of Ru(bpy)2 (dppz)^2+ with B and Z-form DNA a. Ru(bpy)2 (dppz)^2+ 10 μM in buffer R=50.0 mM NaCl, 5.0 mM Tris-OH, pH=7.0. b. Ru(bpy)2 (dppz)2 10 μM in buffer R, with poly d(GC) d(GC) 100 μM under conditions providing B-form DNA. c. Ru(bpy)2 (dppz)^2+ 10 μM in buffer R-L=20.0 mM NaCl, 2.0 mM Tris-OH, pH 7.0, Co(NH3)6^3+ 4μM., with poly d(GC) d(GC) 100 μM under conditions providing Z-form DNA. All λex =482 nm.
As expected, preparations of Ru(bpy)2(dppz)^2+ (10 μM) in buffer R(^9) and buffer R-L(^10) (pH=7.0) produced species that were nonluminescent solutions (FIG. 21a) (λirr =482 nm).

The next assay concerns Z-form DNA. Briefly: Steady state luminescence polarization with Z-form DNA. Format: binding. As for the experimental part: as §1
Similarly, when 1 μM Ru(bpy)2 (dppz)^2+ is titrated into poly d(GC).d(GC) (100 μM) in the Z-form, luminescence polarization is also observed, but in this case the value is 0.35, over double the value found with the analogous solution with B-form. […] As more complex is added the observed polarization reduces to a limiting value of 0.14, still higher than the analogous sample with B-form, thus further confirming the Z-form is a more rigid structure than the B-form.

Another assay has as its system poly r(AU).r(AU). Briefly: Luminescence with poly r(AU).r(AU). Format: binding. The source says:
It appears then that luminescence is observed only when the ruthenium complex is intercalated in (or perhaps otherwise protected by) the nucleic acid structure. […] The relative luminescence of ruthenium complexes in the presence of various helical DNA's under varying conditions is shown in Table 16.

For assay [3], the system named is poly d(GC).d(GC) Z-form DNA. Kind of assay: Luminescence with poly d(GC).d(GC), Z-form. It is filed as binding. As for the experimental part: as §2
Preparations of Ru(bpy)2 (dppz)^2+ (10 μM) in buffer R^(40) and buffer R-L^(41) (pH 7.0) produced species that were nonluminescent solutions (FIG. 21a) (λirr =482 nm). […] Luminescent behavior such as this can be attributed to a highly intercalated species. This must be due to the complex being bound to the Z-form and not due to lower salt conditions (or added Co(NH3)6^3+) as the under the same Z-form producing conditions, calf thymus DNA produces the expected B-form luminescence.
An interesting twist to the luminescent properties of Ru(bpy)2 (dppz)^2+ is observed when this complex is bound to the left handed helix Z-form DNA. […] Luminescent behavior such as this can be attributed to a highly intercalated species. This must be due to the complex being bound to the Z-from nand not due to lower salt conditions (or added Co(NH3)6^3+) as the under the same Z-form producing conditions, calf thymus DNA produces the expected B-from luminescence.

Where [4] appears, read: 10 μM complex, 100 μM DNA, buffer R-L.

Entries after “also recorded” stand apart in the source; their conditions may differ.

On to `[Ru+2].c1ccc(-c2ccccn2)nc1.c1ccc(-c2ccccn2)nc1.c1ccc2nc3c4cccnc4c4ncccc4c3nc2c1` [Ru(bpy)2 (dppz)^2+], for which the “staining of DNA in agarose gels” value in assay [1] is given as “no background luminescence from the complex bound to agarose”. The “Rel. Lumi.” value worked out at 0.68 in the assay on poly d(AT).d(AT); 0.55 with CT DNA (Buffer (50.0 mM NaCl), 25); 0.53 with CT DNA (Buffer (50.0 mM NaCl), 75); 0.61 in the assay with CT DNA (Buffer** (0.5 mM NaCl), 25); 0.06 in the assay on CT DNA (Buffer** (0.5 mM NaCl), 35); 0.59 in the assay with CT DNA (Buffer** (0.5 mM NaCl), 45). For the same molecule, the “Rel. Lumi.” value with CT DNA (Buffer** (0.5 mM NaCl), 55) is listed as 0.55; in the assay with CT DNA (Buffer** (0.5 mM NaCl), 70), 0.47; in the assay with CT DNA (Buffer** (0.5 mM NaCl), 90) it was 0.23; in assay [2] (Buffer (50.0 mM NaCl), poly d(GC).d(GC), 25), 0.72; in the assay on poly r(AU).r(AU) (Buffer (50.0 mM NaCl), 25), 0.01. Moreover, the “highest luminescence polarization, B-form” value in the assay on B-form DNA (1 μM probe) was determined as 0.15. In addition, the “limiting luminescence polarization, B-form” value in the assay on B-form DNA came out at 0.10. The “luminescence with B-form DNA” value in assay [2] (10 μM complex, 100 μM DNA) is listed as “highly luminescent”. Further, the “luminescence λmax with B-form DNA” value in assay [2] (10 μM complex, 100 μM DNA) was 628 nm. The “highest luminescence polarization, Z-form” value with Z-form DNA (1 μM complex, 100 μM DNA) amounted to 0.35. Further, in the assay with Z-form DNA (100 μM DNA), the “limiting luminescence polarization, Z-form” value amounted to 0.14. In the assay with Z-form DNA (in words), the “relative strength of binding, Z-form vs B-form” value is “binds better to the Z-form; also recorded: held more rigidly by Z-form than by the analogous B-form”. The “luminescence with poly r(AU).r(AU)” value in the assay on poly r(AU).r(AU) (10 μM complex, 100 μM RNA, buffer R) was “no luminescence”. Also, the “luminescence with Z-form DNA” value in assay [3] (setting [4]) is “highly luminescent”. In addition, in assay [3] (setting [4]), the “luminescence λmax with Z-form DNA” value turned out to be 640 nm. Besides, the “effect on Z to B transition” value in assay [3] (circular dichroism, over hours) was “does not cause the Z to B transition”.
